Data: patent US20220362276A1, “Small Molecule Inhibitors of Viral Replication” (The Trustees of Princeton University, priority 2019, published 2022)
Entries after “also recorded” stand apart in the source; their conditions may differ.

Experiments:
[1] = tested on: translation of T7-tagBFP-Gluc; assay: Translation inhibition assay (T7-tagBFP-Gluc RNA in Huh7 cells); format: cell-based; details: 4 days
Text: Generation of T7-tagBFP-Gluc. To make the T7-TagBFP-GLuc construct, SP6-TagBFP-2A-FLuc was used as a template and the primers PU-O-6099 and PU-O-6100 were designed to partially anneal immediately upstream and downstream of the SP6 promoter. The unbound portions of PU-O-6099 and PU-O-6100 contained the T7 promoter sequence. […] Next, PCR amplification of the T7-TagBFP-2A backbone was completed using the Q5® High-Fidelity DNA Polymerase and PU-O-6101 and PU-O-6102 as the primers. […] The Gluc insert was then ligated to the T7-TagBFP-2A backbone using the In-Fusion® HD Cloning Kit.
Translation Inhibition Assay. Huh7 cells were seeded at 6,250 cells per well in 96-well format. The cells were then transfected with 50 ng T7-TagBFP-Gluc in vitro transcribed RNA per well. Five hours post-transfection, transfection medium was changed to medium containing isocotoin, ribavirin, cycloheximide, or roclagamide at 6 or 7 different concentrations. DMSO concentration was kept constant in all the wells at 0.125%. For each drug dose, triplicate wells were tested. On day four post-transfection, a luciferase assay was performed on supernatant media to measure Gluc expression.

[2] = tested on: p6/Gluc (HEVΔORF2/3[Gluc]) replicon, KernowC1p6 genotype 3; assay: Dose titration against p6/Gluc replicon in Huh7 cells, Gaussia luciferase readout; format: cell-based, hepatitis E virus; details: for inhibition of p6/Gluc (HEV) replication, in words: Huh7 cells, supernatant Gluc
Method: Gaussia luciferase assays.
Statistics—calculation of IC50. Half maximal inhibitory concentrations were calculated by graphing dose-titration data as nonlinear curve fits with three parameters using GraphPad Prism (v8.1.2).

Huh7 cells = assay: ATP-based cell viability assay (CellTiterGlo); details: ATP live-cell viability assay
Method: Measurement of Cytotoxicity by CellTiterGlo Assay. […] Readout was performed using a Berthold luminometer.

| SMILES | inhibition of p6/Gluc (HEV) replication, in words [2] | cytotoxicity / inhibition of cell growth, in words (Huh7 cells) | further results |
| --- | --- | --- | --- |
| COc1ccc([C@@]23Oc4cc(OC)cc(OC)c4C2(O)[C@H](O)[C@H](C(=O)N(C)C)[C@H]3c2ccccc2)cc1 (stereo in doubt) [roclagamide, (1R,2R,3S,3aR,8bS)-1,8b-dihydroxy-6,8-dimethoxy-3a-(4-methoxyphenyl)-N,N-dimethyl-3-phenyl-2,3-dihydro-1H-cyclopenta[b][1]benzofuran-2-carboxamide, reference compound] |  |  | suppression of Gluc levels [1]: ~10 fold |
| C=CCNC1=C2C[C@@H](C)C[C@H](OC)[C@H](O)[C@@H](C)/C=C(\C)[C@H](OC(N)=O)[C@@H](OC)/C=C\C=C(/C)C(=O)NC(=CC1=O)C2=O [17-AAG, [(4E,6Z,8S,9S,10E,12S,13R,14S,16R)-13-hydroxy-8,14-dimethoxy-4,10,12,16-tetramethyl-3,20,22-trioxo-19-(prop-2-enylamino)-2-azabicyclo[16.3.1]docosa-1(21),4,6,10,18-pentaen-9-yl] carbamate, reference compound] | inhibited HEV replication; also recorded: potent inhibitors | cytostatic properties; also recorded: inhibitors of cell growth |  |
| CCNC(=O)c1noc(-c2cc(C(C)C)c(O)cc2O)c1-c1ccc(CN2CCOCC2)cc1 [AUY-922, 5-(2,4-dihydroxy-5-propan-2-ylphenyl)-N-ethyl-4-[4-(morpholin-4-ylmethyl)phenyl]-1,2-oxazole-3-carboxamide, reference compound] | inhibited HEV replication; also recorded: potent inhibitors; also recorded: most potent analogs |  |  |
| O=C(c1ccc(Cl)cc1)c1ccc(O)cc1O [IBS102, (4-chlorophenyl)-(2,4-dihydroxyphenyl)methanone] |  |  | fold greater decrease in RLU than isocotoin ([2]; 25 μM dose, first round of SAR): approximately 10 fold |
| COc1ccc(-c2c(C)noc2-c2ccc(O)cc2O)cc1 [IBS672, 4-[4-(4-methoxyphenyl)-3-methyl-1,2-oxazol-5-yl]benzene-1,3-diol] |  |  | fold greater decrease in RLU than isocotoin ([2]; 1.5625 μM, second round of SAR): approximately 40 fold |
| CC(C)c1cc(-c2n[nH]c(=O)n2-c2ccc3c(ccn3C)c2)c(O)cc1O [STA-9090, 3-(2,4-dihydroxy-5-propan-2-ylphenyl)-4-(1-methylindol-5-yl)-1H-1,2,4-triazol-5-one, reference compound] | inhibited HEV replication; also recorded: potent inhibitors | cytostatic properties; also recorded: inhibitors of cell growth |  |
| CCNC(=O)c1noc(-c2cc(Cl)c(O)cc2O)c1-c1ccc(OC)cc1 [VER-50589, 5-(5-chloro-2,4-dihydroxyphenyl)-N-ethyl-4-(4-methoxyphenyl)-1,2-oxazole-3-carboxamide, reference compound] | inhibited HEV replication; also recorded: potent inhibitors; also recorded: most potent analogs | cytostatic properties; also recorded: inhibitors of cell growth |  |
| C[C@@H]1C[C@@H]([C@H](O)CC2CC(=O)NC(=O)C2)C(=O)[C@@H](C)C1 [cycloheximide, reference compound] |  |  | suppression of Gluc levels [1]: ~10 fold |
| C[C@H]1O[C@@H](O[C@H]2[C@@H](O)C[C@H](O[C@H]3[C@@H](O)C[C@H](O[C@H]4CC[C@@]5(C)[C@H](CC[C@@H]6[C@@H]5CC[C@]5(C)[C@@H](C7=CC(=O)OC7)[C@@H](O)C[C@]65O)C4)O[C@@H]3C)O[C@@H]2C)C[C@H](O)[C@@H]1O [gitoxin] | dose-dependent inhibition | high cytotoxicity |  |
